In brackets after ≈: the same amount, converted by molar mass. Where two headings read alike, the source gives them in different places.
Assays:
E. coli ATCC 25922 = experiment: Broth microdilution MIC/MBC, glycosides with or without polymyxins; assay type: cell-based, Escherichia coli; conditions: strain A
E. cloacae CQ1941 = experiment: as above; assay type: cell-based; conditions: strain D
K. pneumoniae CQ1942 = experiment: Broth microdilution MIC, glycosides with or without polymyxins; assay type: cell-based, Klebsiella pneumoniae; conditions: strain E
K. pneumoniae CQ1947 = experiment: as above; assay type: cell-based, Klebsiella pneumoniae; conditions: strain F
K. pneumoniae CQ4921 = experiment: Broth microdilution MIC/MBC, glycosides with or without polymyxins; assay type: cell-based, Klebsiella pneumoniae; conditions: strain C
A. baumannii CQ4322 = experiment: as above; assay type: cell-based, Acinetobacter baumannii; conditions: strain G
P. aeruginosa CQ4924 = experiment: Broth microdilution MIC, glycosides with or without polymyxins; assay type: cell-based, Pseudomonas aeruginosa; conditions: strain H; for MIC (antibiotic susceptibility profile) / RIS (susceptibility category): antibiotic alone
HEK-293T cells = experiment: Resazurin cell viability assay (cytotoxicity); assay type: cell-based, human; conditions: tested alone (no polymyxin adjuvant); 72 h
Protocol: (§1) Cytotoxicity of each compound alone or in combination with different polymyxin concentrations was evaluated through the resazurin cell viability assay[49] in human embryonic HEK-293T cells, as well as in human colon adenocarcinoma Caco-2 cells, after a 72-h long incubation period.
(§2) HEK-293T and Caco-2 cells were grown in RPMI 1640 medium (VWR) supplemented with 10% FBS (Biowest), 1% PenStrep (Sigma Aldrich), and 1% glutamine (Biowest) in a humidified incubator at 37 °C with a 5% CO2 atmosphere. Twice a week, the medium was aspirated, the cells were washed with DPBS (VWR), trypsinized with trypsin–EDTA solution (Biowest), and resuspended in fresh culture medium. The dose-dependent effects of each glycoside or glycoside-polymyxin combination were evaluated by the resazurin cell viability assay. Polymyxins (colistin sulfate and PMB sulfate for microbiological assays, European Pharmacopoeia Reference Standards, Sigma-Aldrich) were firstly dissolved in sterilized Mili-Q water to a stock concentration of 1 mg/mL, while glycosides were dissolved in DMSO to a stock concentration of 30 mM. 1.5 × 10^4 cells/well in 96.5 µL of medium were seeded onto 96-well plates and incubated at 37 °C for 24 h. For each compound, ten stock dilutions (with concentrations from 750 to 75 µM) were prepared in fresh medium immediately prior to incubation. 16 µL of each dilution were added to each well so that the final glycoside concentrations ranged from 100 to 10 µM in each row in a final assay volume of 120 µL. In addition, the previously prepared polymyxin stock solutions were diluted in fresh medium, affording new stocks of 8, 4, and 2 µg/mL. The same volume (7.5 µL/well) of PMB or colistin was then added to each row to achieve a final polymyxin concentration of 0.5, 0.25, and 0.125 µg/mL, respectively, regardless of the glycoside concentration. In assays without polymyxin, the same volume (7.5 µL/well) of medium was added. In all assays, the maximum DMSO concentration was 0.33%. After a 72-h incubation at 37 °C, 12 µL of a 0.15 mg/mL resazurin (Sigma-Aldrich) in sterilized Mili-Q water were added to each well, and the plates were left incubating for another 4 h at 37 °C. Resorufin was measured at 570/600 nm, and the percentage of resazurin reduction, corresponding to the cell viability percentage, was calculated according to Eq. (1)[60]. IC50 values were obtained by best fitting the dose-dependent inhibition curves using the Prism 9® software. The results were expressed as the mean ± SD of three independent replicates, with only data from analysis with R^2 > 0.90 being considered.1 %Cellviability=Abssample-Absmediumcontrol/Abscellcontrol-Absmediumcontrol×100

Caco-2 cells = experiment: Resazurin cell viability assay (cytotoxicity); assay type: cell-based, human; conditions: tested alone (no polymyxin adjuvant); 72 h
Protocol: as §1, §2

HEK-293 cells = test system: HEK-293 cells; parameters: method as in PMID 30532748; conditions: polymyxin alone; cited from earlier work
E. coli NCTC 13846 = experiment: Broth microdilution MIC/MBC, glycosides with or without polymyxins; assay type: cell-based, Escherichia coli; conditions: agent alone, no adjuvant (polymyxin conc. 0); strain B
[1] = Escherichia coli, ATCC25922, antibiotic alone, read-out: MIC (antibiotic susceptibility profile)
[2] = Enterobacter cloacae, CQ1941, antibiotic alone, read-out: MIC (antibiotic susceptibility profile)
[3] = Klebsiella pneumoniae, CQ1942, antibiotic alone, read-out: MIC (antibiotic susceptibility profile)
[4] = Klebsiella pneumoniae, CQ1947, antibiotic alone, read-out: MIC (antibiotic susceptibility profile)
[5] = Klebsiella pneumoniae, CQ4921, antibiotic alone, read-out: MIC (antibiotic susceptibility profile)
[6] = agent alone, no adjuvant (polymyxin conc. 0)

Which results are given for CO/N=C(\C(=O)N[C@@H]1C(=O)N2C(C(=O)[O-])=C(C[N+]3(C)CCCC3)CS[C@H]12)c1csc(N)n1 [Cefepime, reference compound]?
MIC (E. coli ATCC 25922; [1]): 0.03 to 0.06 µg/mL (≈ 0.0624 to 0.125 µM); MIC (E. cloacae CQ1941; [2]): > 64 µg/mL; MIC (K. pneumoniae CQ1942; [3]): > 64 µg/mL; MIC (K. pneumoniae CQ1947; [4]): 32 µg/mL (≈ 66.6 µM)

For C[C@@H](O)[C@H]1C(=O)N2C(C(=O)O)=C(SCCN=CN)C[C@H]12 [Imipenem, reference compound], which MIC (E. coli ATCC 25922; [1]) is on record?
Its MIC is 0.125 to 0.25 µg/mL (≈ 0.418 to 0.835 µM).

What about the MIC (E. cloacae CQ1941; [2]) of the same compound?
The MIC was 16 µg/mL (≈ 53.4 µM).

And the MIC (K. pneumoniae CQ4921; [5])?
Its MIC is 4 µg/mL (≈ 13.4 µM).

What about the MIC (K. pneumoniae CQ1942; [3]) of the same compound?
Its MIC is ≥ 128 µg/mL.

What about the “MIC (antibiotic susceptibility profile)” value (A. baumannii CQ4322; antibiotic alone) of the same compound?
The value was 32 to 64 µg/mL.

And the MIC (K. pneumoniae CQ1947; [4])?
Its MIC is 8 to 16 µg/mL (≈ 26.7 to 53.4 µM).

What about the “MIC (antibiotic susceptibility profile)” value (P. aeruginosa CQ4924) of the same compound?
The value was 16 µg/mL (≈ 53.4 µM).

For CC1(C)S[C@@H]2[C@H](NC(=O)[C@H](N)c3ccc(O)cc3)C(=O)N2[C@H]1C(=O)O [Amoxicillin, reference compound], which MIC (E. coli ATCC 25922; [1]) is on record?
Its MIC is 4 µg/mL (≈ 10.9 µM).

What about the MIC (E. cloacae CQ1941; [2]) of the same compound?
Its MIC is ≥ 128 µg/mL.

And the MIC (K. pneumoniae CQ4921; [5])?
The MIC was ≥ 128 µg/mL.

What about the MIC (K. pneumoniae CQ1942; [3]) of the same compound?
The MIC was ≥ 128 µg/mL.

And the “RIS (susceptibility category)” value (A. baumannii CQ4322; antibiotic alone)?
The value was “ERP”.

What about the MIC (K. pneumoniae CQ1947; [4]) of the same compound?
The MIC was ≥ 128 µg/mL.

And the “RIS (susceptibility category)” value (P. aeruginosa CQ4924)?
The value was “ERP”.

Which MIC (E. cloacae CQ1941; [2]) does the source give for C[C@H]1[C@H](NC(=O)/C(=N\OC(C)(C)C(=O)O)c2csc(N)n2)C(=O)N1S(=O)(=O)O [Aztreonam, reference compound] here?
Its MIC is > 64 µg/mL.

And the MIC (K. pneumoniae CQ1942; [3])?
The MIC was > 64 µg/mL.

And the “RIS (susceptibility category)” value (A. baumannii CQ4322; antibiotic alone)?
The value was “ERP”.

What about the MIC (K. pneumoniae CQ1947; [4]) of the same compound?
Its MIC is 0.25 µg/mL (≈ 0.574 µM).

What does the source list for C[C@@H](O)[C@H]1C(=O)N2C(C(=O)O)=C(S[C@@H]3CN[C@H](C(=O)Nc4cccc(C(=O)O)c4)C3)[C@H](C)[C@H]12 [Ertapenem, reference compound]?
MIC (E. coli ATCC 25922; [1]): 0.008 µg/mL (≈ 0.0168 µM); MIC (E. cloacae CQ1941; [2]): 64 µg/mL (≈ 135 µM); MIC (K. pneumoniae CQ4921; [5]): 8 to 64 µg/mL (≈ 16.8 to 135 µM); MIC (K. pneumoniae CQ1942; [3]): ≥ 128 µg/mL; RIS (susceptibility category) (A. baumannii CQ4322; antibiotic alone): ERP; MIC (K. pneumoniae CQ1947; [4]): 16 to 64 µg/mL (≈ 33.6 to 135 µM); RIS (susceptibility category) (P. aeruginosa CQ4924): ERP

For polymyxin B [PMB, reference compound], which MIC (E. coli ATCC 25922; [6]) is on record?
Its MIC is 0.5 µg/mL.

What about the IC50 (HEK-293T cells) of the same compound?
Its IC50 is > 115 µg/mL.

And the IC50 (Caco-2 cells)?
Its IC50 is > 115 µg/mL.

And the MIC (E. cloacae CQ1941; [6])?
Its MIC is 0.5 µg/mL.

And the IC50 (HEK-293 cells)?
Its IC50 is > 500 µg/mL.

And the MIC (K. pneumoniae CQ4921; [6])?
The MIC was 0.5 µg/mL.

What about the MIC (E. coli NCTC 13846) of the same compound?
Its MIC is 4 µg/mL.

What about the MIC (K. pneumoniae CQ1942; [6]) of the same compound?
The MIC was 0.5 µg/mL.

What about the MIC (A. baumannii CQ4322; [6]) of the same compound?
Its MIC is 0.5 µg/mL.

What about the MIC (K. pneumoniae CQ1947; [6]) of the same compound?
The MIC was 0.5 µg/mL.

What about the MIC (P. aeruginosa CQ4924; [6]) of the same compound?
The MIC was 1 µg/mL.

Which results are given for C[C@@H](O)[C@H]1C(=O)N2C(C(=O)O)=C(S[C@@H]3CN[C@H](C(=O)N(C)C)C3)[C@H](C)[C@H]12 [Meropenem, reference compound]?
MIC (E. coli ATCC 25922; [1]): 0.016 to 0.03 µg/mL (≈ 0.0417 to 0.0782 µM); MIC (E. cloacae CQ1941; [2]): 32 to 64 µg/mL (≈ 83.4 to 167 µM); MIC (K. pneumoniae CQ4921; [5]): 4 µg/mL (≈ 10.4 µM); MIC (K. pneumoniae CQ1942; [3]): ≥ 128 µg/mL; MIC (K. pneumoniae CQ1947; [4]): 16 to 32 µg/mL (≈ 41.7 to 83.4 µM); MIC (antibiotic susceptibility profile) (P. aeruginosa CQ4924): 16 µg/mL (≈ 41.7 µM)

Reference: paper PMC10817917, “Alkyl deoxyglycoside-polymyxin combinations against critical priority carbapenem-resistant gram-negative bacteria” (Scientific Reports, 2024)
